Data on three compounds can be found in US10947196B2, “Beta adrenergic agonist and methods of using the same” (CURASEN THERAPEUTICS, INC., priority 2019, dated 2021).

Structures are written as SMILES.

Data set [1] can be described thus: Microsomal stability (dog). The class given is in vitro ADME. The settings on record: liver microsomes 0.5 mg/mL; method gives CLint in μL/min/mg protein. As for the experimental part:
The master solution was prepared as follows.
With NADPH: 10 μL of 20 mg/mL liver microsomes and 40 μL of 10 mM NADPH were added to the incubations. The final concentrations of microsomes and NADPH were 0.5 mg/mL and 1 mM, respectively.
Without NADPH: 10 μL of 20 mg/mL liver microsomes and 40 μL of ultra-pure H2O were added to the incubations. The final concentration of microsomes was 0.5 mg/mL.
The reaction was started with the addition of 4 μL of 3, 10, 30 and 100 μM test compound solution or control compound solution at the final concentration of 0.03, 0.1, 0.3 and 1 μM and carried out at 37° C.
Aliquots of 50 μL were taken from the reaction solution at 0, 15, 30, 45 and 60 min. The reaction was stopped by the addition of 4 volumes of cold acetonitrile with IS (100 nM alprazolam, 200 nM labetalol, 200 nM caffeine and 2 μM ketoprofen). Samples were centrifuged at 3, 220 g for 40 minutes. Aliquot of 100 μL of the supernatant was mixed with 100 μL of ultra-pure H2O and then used for LC-MS/MS analysis.
Peak areas were determined from extracted ion chromatograms. The slope value, k, was determined by linear regression of the natural logarithm of the remaining percentage of the parent drug vs. incubation time curve.
The in vitro half-life (in vitro t1/2) was determined from the slope value: in vitro t1/2=−(0.693/k) […]
(Liver microsomes are vesicles of endoplasmic reticulum, rich in cytochrome P450 enzymes.)

Data set [2] in a line: Hepatocyte stability (monkey). Format: in vitro ADME. As to conditions: 0.5×10^6 viable cells/mL. As for the experimental part:
10 mM and 100 μM stock solutions of test compound(s) and a positive control were prepared in appropriate solvent (DMSO). In separate conical tubes, the 10 mM test compound and the positive control were diluted to 100 μM by combining 198 μL of 50% acetonitrile/50% water and 2 μL of 10 mM stock. The 100 μM test compound and the positive control were diluted to 30 μM by combining 140 μL of 50% acetonitrile/50% water and 60 μL of 100 μM stock solution. The 100 μM test compound and the positive control were diluted to 10 μM by combining 180 μL of 50% acetonitrile/50% water and 20 μL of 100 μM stock solution. The 100 μM test compound and the positive control were diluted to 3 μM by combining 194 μL of 50% acetonitrile/50% water and 6 μL of 100 μM stock solution.
Incubation medium (William's E Medium supplemented with GlutaMAX) and hepatocyte thawing medium was placed in a 37° C. water bath, and allowed to warm for at least 15 minutes prior to use. […]
Using AOPI staining solution, cells were counted and the viable cell density was determined. […]
All calculations were carried out using Microsoft Excel. Peak areas were determined from extracted ion chromatograms. […]
The in vitro half-life (in vitro t1/2) was determined from the slope value: in vitro t1/2=0.693/k

For the compound `CC(C)(C)NC[C@H](O)c1cccc(C#N)n1` [Compound 03-5, (S)-6-(2-(tert-butylamino)-1-hydroxyethyl)picolinonitrile], in data set [1], the Intrinsic clearance (CLint), dog liver microsomes was found to be 4.32 µL/min/mg protein. The “Hepatocyte stability, Monkey” value in data set [2] is reported as 1.88 μL/min/10^6 cells.

In the case of `CC(C)(C)NC[C@H](O)c1cccc(C(F)(F)F)n1` [Compound 03-3], the Intrinsic clearance (CLint), dog liver microsomes in data set [1] came out at 7.99 µL/min/mg protein.

Take `Cc1ncccc1[C@@H](O)CNC(C)(C)C` [Compound 03-115]: the “Hepatocyte stability, Monkey” value in data set [2] is given as 1.26 μL/min/10^6 cells.
